Patent EP0732399A2 (CEPHALON, INC., priority 1990, dated 1991)
Values joined by “and” are separate entries in the source; they are usually repeats but may differ in a detail not shown here. Equal entries are not always repeated. “Also recorded” adds a separate entry of the source. Where two headings read alike, the source gives them in different places. Square brackets hold non-standard residues; d marks the D form. Peptide text beside a SMILES is read from it. * marks the point of attachment. Sta = CC(C)C[C@H](N)[C@@H](O)CC(=O)O; Isovaleryl = CC(C)CC(=O)*; MeOSuc = COC(=O)CCC(=O)*; CH2Cl = ClC*

Experiments:
chymase [1] = molecular target: T1, chymase (Rattus norvegicus, UniProt P09650); assay: Inhibition of purified brain chymase (pNa substrate hydrolysis); format: biochemical
T1 construct: Starting from 18g rat brain, approximately 10µg homogeneous chymase was obtained; from tissue; host or cells: rat forebrain (5-7 day old pups)
T1 sequence (P09650 21-260): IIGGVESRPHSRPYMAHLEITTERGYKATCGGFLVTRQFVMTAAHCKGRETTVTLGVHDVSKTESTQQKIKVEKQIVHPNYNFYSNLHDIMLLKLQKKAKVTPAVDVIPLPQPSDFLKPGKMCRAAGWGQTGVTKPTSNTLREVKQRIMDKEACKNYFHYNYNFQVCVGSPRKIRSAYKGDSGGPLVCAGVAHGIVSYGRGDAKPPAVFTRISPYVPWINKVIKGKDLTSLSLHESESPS
Procedure: (§1) During the various protease purification steps, protease activity of all fractions was measured using chromogenic or fluorogenic peptide analogs as substrates. Other methods are available, known to those skilled in the art. One specific example of an activity measurement is described here. Protease activity assays were performed in 96 well microtiter plates, in a total volume of 0.2 mls. Substrates were prepared as 10-20X concentrated stock solutions in DMSO. Therefore, each reaction contained 5-10% DMSO. Reactions were initiated by addition of protease-containing samples to wells already containing substrates, and were maintained at 37°C. Control wells received either protease without substrate, or substrate without protease. The release of reporter moities by proteolytic cleavage was followed as a function of time by either spectrophotometry (e.g., for pNa substrates, change in absorbance with time at 405 nm) or fluorimetry (e.g., for AMC substrates, change in fluorescence with time using excitation at 390 nm and emission at 460 nm). Maximum velocity of reactions was determined while substrate hydrolysis increased linearly as a function of time.

[2] = test system: human brain multicatalytic protease; format: biochemical; settings: qualitative, no concentration stated
Procedure: as §1
Human cerebral cortex (courtesy National Neurological Research Bank, Los Angeles, CA.) was obtained at autopsy and stored at -70°C until use. All procedures were conducted at 4 °C unless noted otherwise. […] Triton X-100 was added to 0.5%, the homogenate was stirred for 1 hr., then centrifuged at 40,000 x g for 1 hr. The supernatant, containing the multicatalytic protease, was dialyzed against 20 mM Tris-HCl (pH 8.0),1% glycerol. The following day, the dialysate was loaded on a column (150 ml bed volume) of DEAE-Sepharose Fast Flow (Pharmacia, Piscataway, N.J.) equilibrated in the dialysis buffer. Unbound material was removed with ∼300 mls dialysis buffer, then bound material was eluted with a linear NaCl gradient from 0 mM to 400 mM (1.5 liters total). Fractions of 15 ml were collected and assayed for multicatalytic protease activity (see below).

chymase [3] = assay: Purified chymase; settings: rat, room temperature, up to 48 hrs
chymotrypsin [4] = assay: chymotrypsin; settings: 37°C
chymase [5] = assay: purified rat brain chymase; settings: 37°C
cathepsin G [6] = assay: cathepsin G; settings: 37°C
[7] = high salt extract preparation (1 M MgCl2) of human brain samples
chymotrypsin [8] = assay: chymotrypsin (Fig. 6 panel B); settings: 37°C
cathepsin G [9] = assay: cathepsin G (Fig. 6 panel C); settings: 37°C
multicatalytic protease [10] = assay: multicatalytic protease purified from human brain; settings: 37°C
chymase [11] = assay: human brain chymase purified from human cerebral cortex; settings: 37°C
cathepsin G [12] = molecular target: T2, cathepsin G (Homo sapiens, UniProt P08311); assay: Substrate cleavage by cathepsin G; format: biochemical
T2 sequence (P08311 21-255): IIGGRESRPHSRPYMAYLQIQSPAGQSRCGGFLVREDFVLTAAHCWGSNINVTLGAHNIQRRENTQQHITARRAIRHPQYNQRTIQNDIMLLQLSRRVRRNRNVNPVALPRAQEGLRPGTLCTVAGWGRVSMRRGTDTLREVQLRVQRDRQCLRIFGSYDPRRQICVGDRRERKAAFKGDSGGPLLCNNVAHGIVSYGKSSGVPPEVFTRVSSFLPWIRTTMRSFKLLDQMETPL
Procedure: as §1
(§2) Contrary to expectation, not all chymotrypsin-like proteases were able to cleave MeOSuc-Glu-Val-Lys-Met-pNa (Figure 6; EVKM using the one letter amino acid code). […]

human brain chymase = molecular target: T3, human brain chymase (Homo sapiens, UniProt P23946)
T3 sequence (P23946 22-247): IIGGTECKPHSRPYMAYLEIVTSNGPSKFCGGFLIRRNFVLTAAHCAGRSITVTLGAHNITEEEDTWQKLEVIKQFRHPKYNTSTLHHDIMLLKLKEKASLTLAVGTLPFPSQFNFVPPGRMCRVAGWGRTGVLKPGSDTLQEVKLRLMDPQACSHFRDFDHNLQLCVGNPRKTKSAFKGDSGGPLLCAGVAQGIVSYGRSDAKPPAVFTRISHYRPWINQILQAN
Excerpt: Samples obtained post-mortem from human cerebral cortex (courtesy of the National Neurological Research Bank) were fractionated as described above for preparation of rat brain chymase. […] Protease was further purified on a heparin-Sepharose column in a manner similar to purification of rat brain chymase. […] The enzyme bound to the column in 0.4 M NaCl and was eluted by increasing the NaCl concentration to 0.7-0.9 M.
Next, chymase was purified using a chymase inhibitor coupled to resin, lima bean trypsin inhibitor-agarose (Sigma, St. Louis, MO.). […] Chymase-containing fractions from the heparin eluate were pooled, concentrated to 10 ml, and loaded on a 1 ml bed volume of lima bean trypsin inhibitor-agarose. The column was washed with Hepes buffer containing 0.5 M NaCl (5 vol), then with water (5 vol). Chymase was eluted with 2 mM HCl, and was immediately neutralized with Tris-HCl (0.2 M final concentration, pH 8.0) containing 0.5 M NaCl.

chymotrypsin [13] = assay: Substrate cleavage by chymotrypsin; format: biochemical
Procedure: as §1, §2

multicatalytic protease [14] = molecular target: T4, multicatalytic protease (Homo sapiens, UniProt P28074); assay: Substrate cleavage by multicatalytic protease; format: biochemical
T4 construct: Human cerebral cortex (courtesy National Neurological Research Bank, Los Angeles, CA.) was obtained at autopsy; from tissue; host or cells: human cerebral cortex, post mortem
Procedure: as §1
Human cerebral cortex (courtesy National Neurological Research Bank, Los Angeles, CA.) was obtained at autopsy and stored at -70°C until use. All procedures were conducted at 4 °C unless noted otherwise. […]

chymase [15] = molecular target: T1, chymase; assay: Substrate cleavage by brain chymase; format: biochemical
Procedure: as §1

Compound `COC(=O)CCC(=O)N[C@@H](CCC(=O)O)C(=O)N[C@H](C(=O)N[C@@H](CCCCN)C(=O)N[C@@H](Cc1ccccc1)C(=O)CCl)C(C)C` (MeOSuc-EVKF-CH2Cl) has a Ki (chymase [1]; Ki) of under 0.02 µM.
For `COC(=O)CCC(=O)N[C@@H](CCC(=O)O)C(=O)N[C@H](C(=O)N[C@@H](CCCCN)C(=O)N[C@H](C=O)Cc1ccccc1)C(C)C` [MeOSuc-Glu-Val-Lys-Phe-al, MeOSuc-Glu-Val-Lys-Phenylalaninal] (MeOSuc-EVKF-aldehyde), the Ki (chymase [1]; read-out: Ki) was < 0.02 µM and 0.015 µM.
With `CC(C)C[C@H](NC(=O)[C@@H](NC(=O)N[C@@H](Cc1ccccc1)C(=O)O)[C@@H]1CCN=C(N)N1)C(=O)N[C@H](C=O)Cc1ccccc1` [chymostatin] the “inhibition of multicatalytic protease activity” value [2] was “inhibition”.
For `CC(=O)N[C@@H](CC(C)C)C(=O)N[C@@H](CC(C)C)C(=O)N[C@H](C=O)CCCNC(=N)N` [leupeptin], the “inhibition of multicatalytic protease activity” value [2] was “not”.
With `c1cnc2c(c1)ccc1cccnc12` [o-phenanthroline] the “inhibition of multicatalytic protease activity” value [2] was “not”.
In the case of `CC(C)CC(=O)N[C@H](C(=O)N[C@H](C(=O)N[C@@H](CC(C)C)[C@@H](O)CC(=O)N[C@@H](C)C(=O)N[C@@H](CC(C)C)[C@@H](O)CC(=O)O)C(C)C)C(C)C` [pepstatin] (Isovaleryl-VV[Sta]A[Sta]-OH), the “inhibition of multicatalytic protease activity” value [2] is reported as “not”.
In the case of `O=S(=O)(F)Cc1ccccc1` [phenylmethylsulfonylfluoride], the “inhibition of multicatalytic protease activity” value [2] is reported as “not”.
In the case of “Glu-Val-Lys-Met-Asp-Ala-Glu-Phe-Arg-His-Asp-Ser-Gly-Tyr-Glu-Val-His-His-Gln”, the cleaved bond (chymase [3]) is reported as “Met596-Asp597, 45 minutes”.
For MeOSuc-Ala-Ala-Pro-Met-pNa, the cleaved bond (chymotrypsin [4]) was “Met-pNa”, the cleaved bond (chymase [5]) was “Met-pNa” and the cleaved bond (cathepsin G [6]) was “Met-pNa”.
For MeOSuc-Ala-Ala-Pro-Phe-pNa, the cleaved bond [7] was “Phe-pNa”.
In the case of MeOSuc-Glu-Val-Lys-Met-pNa, the not cleaved (chymotrypsin [8]) is reported as “essentially without effect”, the not cleaved (cathepsin G [9]) is reported as “essentially without effect” and the cleaved bond (chymase [5]) is reported as “Met-pNa”. For the same compound, the cleaved bond (multicatalytic protease [10]) was “Met-pNa” and the cleaved bond (chymase [11]) was “Met-pNa”.
With MeOSuc-Glu-Val-Lys-Phe-pNa the cleaved bond (chymase [5]) was “Phe-pNa”.
In the case of Suc-Ala-Ala-Pro-Phe-pNa, the cleaved bond (chymase [5]) is reported as “Phe-pNa” and the cleaved bond (chymase [11]) is reported as “Phe-pNa”.
For “methoxysuccinyl-glutamyl-valyl-lysyl-methionine-p-nitroanili de [MeOSuc-Glu-Val-Lys-Met-pNa]”, the “substrate cleavage by cathepsin G” value (cathepsin G [12]) was “essentially without effect”, the “substrate hydrolysis by human brain chymase” value (human brain chymase) was “hydrolyzed” and the “substrate cleavage by chymotrypsin” value (chymotrypsin [13]) was “essentially without effect”. The “substrate cleavage by multicatalytic protease” value (multicatalytic protease [14]) was “readily degraded; also recorded: unusual ability to cleave” and the “substrate cleavage by chymase” value (chymase [15]) was “readily degraded”.
